# Test results from US8100830B2, “Non-therapeutic methods of evaluating skin neurosensitivity, kit and use of a kit for implementing the method” (Societe l'Oreal S.A., priority 2002, dated 2012).
# Key:
# [1] = test system: nasogenial sulci of healthy subjects; test: Example 1: detection threshold test, increasing capsaicin concentrations C1-C4 applied to the nasogenial sulci against vehicle; assay type: in vivo, human; settings: 13 healthy subjects, 3.3×10^−5% to 1×10^−3% in ethanol 10%, water 90%
# Experimental: Capsaicin was tested in the form of aqueous-alcoholic solutions (ethanol 10%, water 90%).
# Experimental Design: • Randomized, single-blind study, controlled • 13 healthy subjects of both sexes • 4 capsaicin solutions tested: 3.3×10^−5% (C1), 1×10^−4% (C2), 3.3×10^−4% (C3), 1×10^−3% (C4)
# 1st step: Simultaneous application to the nasogenial sulci on each side of the face of the vehicle, using impregnated cotton buds, in order to acclimatize the volunteer to the sensations induced by application of the vehicle. Waiting time of 3 minutes.
# 2nd step: Application of the vehicle to one side and of the capsaicin solution at concentration C1 on the other. After 3 minutes, ask whether the subject has perceived a difference between the 2 sides. If the subject describes an unattractive sensation on the side which has received the capsaicin, stop the test and allocate C1 as the detection threshold. If not, go immediately to step 3.
# 3rd step: Application of solution C2 to the side which has received the vehicle in […] and of the vehicle to the other side. After 3 minutes, ask whether the subject has perceived a difference between the 2 sides. If the subject describes a particular sensation on the side which has received the capsaicin, stop the test and allocate C2 as the detection threshold. If not, go immediately to step 4. […]
# [2] = test system: skin of a non-selective population of 150 women; test: Example 7: skin neurosensitivity threshold of 150 women with the kit of Example 3 (capsaicin solutions C1-C5); assay type: in vivo, human
# Experimental: This kit allows approximately 50 instances of use and comprises in a box (B) the following elements: • 1. a holder P allowing […] bottles as described in section 2 of this list to be held upright; • 2. 5 bottles F3 of 20 ml containing respectively 15 ml of solutions C1-C5 (3.16×10^−5% (C1), 1×10^−4% (C2), 3.16×10^−4% (C3), 1×10^−3% (C4) and 3.16×10^−3% (C5)) and a bottle F3T containing 15 ml of a 10% aqueous-alcoholic solution T; these bottles are shown in FIG. 2 and correspond to those defined in section 4 of Example 2; • 3. 80 standard cotton buds CT; • 4. a usage note containing the following elements: • a) use instructions for the implementation of the test, reproducing the protocol of Example 1, using the cotton buds and the bottles F3C1-5 and F3T; the bottles must be stored at 4° C. between two instances of use and discarded after one week of use. • b) a calibration system (atlas) allowing interpretation of the results (C1: excessively sensitive skin; C2: highly sensitive skin; C3: moderately sensitive skin; C4: relatively insensitive skin; C5: virtually insensitive skin; C5 not detected: completely insensitive skin).
# Use of the Kit of Example 3 to Determine the Skin Neurosensitivity Threshold of 150 Women:
# Study performed in a single-blind procedure on a non-selective population of 150 women aged from 18 to 60 years living in Paris or the surrounding region.
# It is interesting to note that the sensations reported at the level of the detection threshold (characterized by a sensation detected on the side where the capsaicin was applied, lasting for at least 30 seconds) are highly varied (presence, pins and needles, stinging, hotness, etc.)
# [3] = assay type: physicochemical
# From the text: When the peripheral nervous system stimulant is capsaicin, a preferred vehicle is an aqueous-alcoholic solution, advantageously an aqueous-ethanolic solution, containing from 1% to 50% of ethanol in water, advantageously from 5% to 20%, preferably from 8% to 15% and more preferably 10%.
# [4] = 109 women who detected a concentration, intensity scale 1 to 5
smiles,measurement,setting,value
COc1cc(CNC(=O)CCCC/C=C/C(C)C)ccc1O [capsaicin],tolerance of the test (pain) as evaluated by the subjects,[1],absolutely painless for all of the 13 subjects
same,"delay before appearance of the sensation, maximum",[2]; 74 of the 150 subjects,120 s
same,"delay before appearance of the sensation, minimum",[2]; 74 of the 150 subjects,60 s
same,"delay before appearance of the sensation, mean","[2]; 74 of the 150 subjects, at the detection threshold",79.9 s
same,sensations at level 2 (slight but perceptible) at the detected concentration,[2]; [4],95%
same,sensations at level 3 (moderately clearly perceptible) at the detected concentration,[2]; [4],5%
same,sensations of level 4 (substantial) or painful at the detected concentration,[2]; [4],No sensation of level 4 (“substantial”) or (“painful”) was reported
same,"subjects who detected C1, C2 or C3 (sensitive to highly sensitive population)","[2]; 150 women, C1 3.16×10^−5%, C2 1×10^−4%, C3 3.16×10^−4%",56%
same,subjects who detected C4 or C5 or did not detect any concentration (virtually or completely insensitive population),"[2]; 150 women, C4 1×10^−3%, C5 3.16×10^−3%",44%
same,women who detected a concentration,"[2]; of 150 women, C1-C5",109
same,stability over time of aqueous-ethanolic solutions,[3],particularly stable over time
